For the assay, the system named is α-synuclein cytotoxicity in M17-SYNwt cells. The assay can be described thus: α-synuclein cytotoxicity assay: LDH leakage from paraquat-treated M17-SYNwt neuroblastoma cells.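 For all read-outs here: paraquat at 32 mM co-added with compound, 40 h exposure, LDH activity released into the culture medium measured, references are DMSO-only cells and paraquat plus DMSO cells.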 The conditions noted are these: Homo sapiens, Neuroblastoma cell; for Emax: read-out: % Inhib. Background: LDH in the medium is a marker of cell lysis.

pEC50: −log10 of the molar value.

Excerpt: An α-synuclein expression plasmid was constructed by sub-cloning the NcoI/XhoI fragment from 212T-SYN(WT) (Griffioen et al., Biochem Biophys Acta (2006) 1762(3):312-318) containing the cDNA of human wild type α-synuclein correspondingly into a standard mammalian expression vector pcDNA3.1 (Invitrogen) resulting into the plasmid pcDNA3.1-SYNwt. Plasmids pcDNA3.1 and pcDNA3.1-SYNwt were transfected to human neuroblastoma cells (ATCC No. CRL-2267) and independent clonal lines with the plasmids stably integrated into the genome were selected. […] Over-expression of α-synuclein in M17-SYNwt cell lines was confirmed by Western analysis.
Due to the high levels of α-synuclein M17-SYNwt cells are exquisitely sensitivity to paraquat, a well-known risk factor of synuclein-dependent neuronal degeneration. In degenerated or dead cells lactate dehydrogenase (LDH) is leaked out of the cells into the extracellular environment due to a loss of plasma-membrane integrity. This principle was used to determine cytotoxicity by quantifying the level of leaked LDH into the growth medium.
The detailed method for determining α-synuclein cytotoxicity was as follows: From appropriate precultures of M17 and M17-SYN cells were seeded at 50,000 cells/cm^2 in Optimem Reduced Serum without phenol red (available from InVitrogen, Cat. 31985-047) supplemented with 5% fetal calf serum, 1 mM sodium pyruvate, 1× non-essential amino acids, 500 μg/ml G418 0,5× antibiotic/antimycotic. After 3 hours of incubation at 37° C./5% CO2 paraquat was added to the cells (final concentration of 32 mM), together with the test compound and the cells were further incubated for 40 hours. Subsequently, LDH activity was determined using Promega Cytotox 96 Non-Radioactive cytotoxicity assay, (Cat. G1780) according the instructions of the supplier.
In these experiments, the control group consisted of M17-SYNwt cells treated with DMSO, the untreated paraquat group consisted of M17-SYNwt cells treated with paraquat and DMSO, and the treated paraquat group consisted of M17-SYNwt cells treated with paraquat and the test compound dissolved in DMSO.

For `O=C(NCCN1CCN(c2nc(Cc3ccccc3)ns2)CC1)c1cccc(F)c1` [compound 106, 3-fluoro-N-{2-[4-[3-benzyl-1,2,4-thiadiazol-5-yl]piperazin-1-yl]ethyl}benzamide], the Emax came to 49%.
Take `O=C(Cc1ccc(F)cc1)NCCN1CCN(c2nc(Cc3ccc(F)cc3)ns2)CC1` [compound 107, 2-(4-fluorophenyl)-N-{2-[4-[3-(4-fluorobenzyl)-1,2,4-thiadiazol-5-yl]piperazin-1-yl]ethyl}acetamide]: the pEC50 (usually the negative decadic logarithm of the EC50, by convention in mol/L) is 6.59 and the Emax stood at 80%.
Taken in the same sequence, the figures for `O=C(Cc1ccccc1)NCCN1CCN(c2nc(Cc3ccc(F)cc3)ns2)CC1` [compound 108, 2-phenyl-N-{2-[4-[3-(4-fluorobenzyl)-1,2,4-thiadiazol-5-yl]piperazin-1-yl]ethyl}acetamide] were 5.69 and 63%.
For the compound `Cc1ccc(Cc2nsc(N3CCN(CCNC(=O)Cc4ccc(F)cc4)CC3)n2)cc1` [compound 109, 2-(4-fluorophenyl)-N-{2-[4-[3-(4-methylbenzyl)-1,2,4-thiadiazol-5-yl]piperazin-1-yl]ethyl}acetamide], the pEC50 was 5.45 and the Emax came out at 93%.
For `O=C(NCCN1CCN(c2nc(Cc3ccc(F)cc3)ns2)CC1)NCc1ccccc1` [compound 110, N-benzyl-N′-{2-[4-[3-(4-fluorobenzyl)-1,2,4-thiadiazol-5-yl]piperazin-1-yl]ethyl}urea], the Emax is 77%.
Consider `CCC(C(=O)NCCN1CCN(c2nc(Cc3ccc(F)cc3)ns2)CC1)c1ccccc1` (centres unmarked) [compound 111, 2-phenyl-N-{2-[4-[3-(4-fluorobenzyl)-1,2,4-thiadiazol-5-yl]piperazin-1-yl]ethyl}butanamide], for which the pEC50 was 5.75 and the Emax was 79%.
Taken in the same sequence, the figures for `Fc1ccc(Cc2nsc(N3CCN(Cc4ccccc4)CC3)n2)cc1` [compound 113, 1-benzyl-4-[3-(4-fluorobenzyl)-1,2,4-thiadiazol-5-yl]piperazine] were 5.81 and 65%.
As for `Fc1ccc(Cc2nsc(N3CCN(Cc4ccc5c(c4)OCO5)CC3)n2)cc1` [compound 114, 1-(1,3-benzodioxol-5-ylmethyl)-4-[3-(4-fluorobenzyl)-1,2,4-thiadiazol-5-yl]piperazine], the Emax turned out to be 86%.
Take `COc1cccc(Cc2nsc(N3CCN(C(=O)c4ccccc4F)C(C)C3)n2)c1` (centres unmarked) [compound 115, 1-(2-fluorobenzoyl)-4-[3-(3-methoxybenzyl)-1,2,4-thiadiazol-5-yl]-2-methylpiperazine]: the pEC50 was 7.44 and the Emax amounted to 75%.
In the case of `CCc1ccc(C(=O)N2CCN(c3nc(Cc4ccc(F)cc4)ns3)CC2C)cc1` (centres unmarked) [compound 116, 1-(4-ethylbenzoyl)-4-[3-(4-fluorobenzyl)-1,2,4-thiadiazol-5-yl]-2-methylpiperazine], the pEC50 is 7.28 and the Emax was determined as 71%.
Taken in the same sequence, the figures for `CCCCc1ccc(C(=O)N2CCN(c3nc(Cc4ccc(C)cc4)ns3)CC2C)cc1` (centres unmarked) [compound 117, 1-(4-butylbenzoyl)-4-[3-(4-methylbenzyl)-1,2,4-thiadiazol-5-yl]-2-methylpiperazine] were 7.08 and 82%.
Taken in the same sequence, the figures for `COc1ccc(C(=O)N2CCN(c3nc(Cc4ccc(F)cc4)ns3)CC2C)cc1` (centres unmarked) [compound 118, 1-(4-methoxybenzoyl)-4-[3-(4-fluorobenzyl)-1,2,4-thiadiazol-5-yl]-2-methylpiperazine] were 7.04 and 64%.
On to `CCCCc1ccc(C(=O)N2CCN(c3nc(Cc4ccc(F)cc4)ns3)CC2C)cc1` (centres unmarked) [compound 120, 1-(4-butylbenzoyl)-4-[3-(4-fluorobenzyl)-1,2,4-thiadiazol-5-yl]-2-methylpiperazine], for which the pEC50 is 7.01 and the Emax came to 120%.
Take `CCCCCCc1ccc(C(=O)N2CCN(c3nc(Cc4ccc(F)cc4)ns3)CC2)cc1` [compound 121, 1-(4-hexylbenzoyl)-4-[3-(4-fluorobenzyl)-1,2,4-thiadiazol-5-yl]piperazine]: the pEC50 was 6.92 and the Emax came out at 64%.
Take `CC1CN(c2nc(Cc3ccc(F)cc3)ns2)CCN1C(=O)c1cccc(Cl)c1` (centres unmarked) [compound 122, 1-(3-chlorobenzoyl)-4-[3-(4-fluorobenzyl)-1,2,4-thiadiazol-5-yl]-2-methylpiperazine]: the pEC50 is 6.85 and the Emax was determined as 92%.
The matching figures for `COc1cccc(Cc2nsc(N3CCN(C(=O)c4ccc(F)cc4)C(C)C3)n2)c1` (centres unmarked) [compound 123, 1-(4-fluorobenzoyl)-4-[3-(3-methoxybenzyl)-1,2,4-thiadiazol-5-yl]-2-methylpiperazine]: 6.85 and 95%.
As to `COc1cccc(Cc2nsc(N3CCN(C(=O)c4ccc(C)cc4)C(C)C3)n2)c1` (centres unmarked) [compound 124, 1-(4-methylbenzoyl)-4-[3-(3-methoxybenzyl)-1,2,4-thiadiazol-5-yl]-2-methylpiperazine], the pEC50 was 6.85 and the Emax stood at 57%.
Taken in the same sequence, the figures for `CC1CN(c2nc(Cc3ccc(Cl)cc3)ns2)CCN1C(=O)c1cccc(F)c1` (centres unmarked) [compound 125, 1-(3-fluorobenzoyl)-4-[3-(4-chlorobenzyl)-1,2,4-thiadiazol-5-yl]-2-methylpiperazine] were 6.80 and 68%.
The matching figures for `CC1CN(c2nc(Cc3ccc(F)cc3)ns2)CCN1C(=O)c1ccccc1` (centres unmarked) [compound 126, 1-benzoyl-4-[3-(4-fluorobenzyl)-1,2,4-thiadiazol-5-yl]-2-methylpiperazine]: 6.68 and 63%.
On to `CC1CN(c2nc(Cc3ccc(F)cc3)ns2)CCN1C(=O)c1ccc(F)cc1` (centres unmarked) [compound 127, 1-(4-fluorobenzoyl)-4-[3-(4-fluorobenzyl)-1,2,4-thiadiazol-5-yl]-2-methylpiperazine], for which the pEC50 is 6.64 and the Emax came out at 108%.
With `CC1CN(c2nc(Cc3ccc(F)cc3)ns2)CCN1C(=O)c1ccc(C(C)(C)C)cc1` (centres unmarked) [compound 128, 1-(4-tert-butylbenzoyl)-4-[3-(4-fluorobenzyl)-1,2,4-thiadiazol-5-yl]-2-methylpiperazine], the pEC50 is 6.62 and the Emax came out at 95%.
Consider `CC1CN(c2nc(Cc3ccc(F)cc3)ns2)CCN1C(=O)c1ccc(-c2ccccc2)cc1` (centres unmarked) [compound 129, 1-(1,1′-biphenyl-4-ylcarbonyl)-4-[3-(4-fluorobenzyl)-1,2,4-thiadiazol-5-yl]-2-methylpiperazine], for which the pEC50 is 6.62 and the Emax worked out at 61%.
The matching figures for `CCc1ccc(C(=O)N2CCN(c3nc(Cc4ccc(C)cc4)ns3)CC2)cc1` [compound 131, 1-(4-ethylbenzoyl)-4-[3-(4-methylbenzyl)-1,2,4-thiadiazol-5-yl]piperazine]: 6.60 and 91%.
In the case of `CC1CN(c2nc(Cc3ccc(F)cc3)ns2)CCN1C(=O)c1ccc2ccccc2c1` (centres unmarked) [compound 132, 1-(2-naphthoyl)-4-[3-(4-fluorobenzyl)-1,2,4-thiadiazol-5-yl]-2-methylpiperazine], the pEC50 was 6.59 and the Emax was 74%.
The matching figures for `COc1ccccc1C(=O)N1CCN(c2nc(Cc3ccc(F)cc3)ns2)CC1C` (centres unmarked) [compound 133, 1-(2-methoxybenzoyl)-4-[3-(4-fluorobenzyl)-1,2,4-thiadiazol-5-yl]-2-methylpiperazine]: 6.54 and 118%.
As for `CCCCCc1ccc(C(=O)N2CCN(c3nc(Cc4ccc(C)cc4)ns3)CC2C)cc1` (centres unmarked) [compound 134, 1-(4-pentylbenzoyl)-4-[3-(4-methylbenzyl)-1,2,4-thiadiazol-5-yl]-2-methylpiperazine], the pEC50 is 6.52 and the Emax amounted to 75%.
The matching figures for `CC1CN(c2nc(Cc3ccc(F)cc3)ns2)CCN1C(=O)c1ccc(Br)cc1` (centres unmarked) [compound 135, 1-(4-bromobenzoyl)-4-[3-(4-fluorobenzyl)-1,2,4-thiadiazol-5-yl]-2-methylpiperazine]: 6.51 and 73%.
The matching figures for `COc1ccc(C(=O)N2CCN(c3nc(Cc4ccc(F)cc4)ns3)CC2C)c(OC)c1` (centres unmarked) [compound 136, 1-(2,4-dimethoxybenzoyl)-4-[3-(4-fluorobenzyl)-1,2,4-thiadiazol-5-yl]-2-methylpiperazine]: 6.47 and 83%.
The matching figures for `O=C(c1cc(Cl)cc(Cl)c1)N1CCN(c2nc(Cc3ccc(F)cc3)ns2)CC1` [compound 137, 1-(3,5-dichlorobenzoyl)-4-[3-(4-fluorobenzyl)-1,2,4-thiadiazol-5-yl]piperazine]: 6.46 and 68%.
Turning to `O=C(c1cccc(Cl)c1)N1CCN(c2nc(Cc3ccc(F)cc3)ns2)CC1` [compound 138, 1-(3-chlorobenzoyl)-4-[3-(4-fluorobenzyl)-1,2,4-thiadiazol-5-yl]piperazine], the pEC50 is 6.44 and the Emax stood at 81%.
Turning to `Cc1ccc(C(=O)N2CCN(c3nc(Cc4ccc(F)cc4)ns3)CC2C)cc1` (centres unmarked) [compound 139, 1-(4-methylbenzoyl)-4-[3-(4-fluorobenzyl)-1,2,4-thiadiazol-5-yl]-2-methylpiperazine], the negative-log EC50 (pEC50) is 6.40 and the Emax came out at 87%.
The matching figures for `Cc1ccccc1C(=O)N1CCN(c2nc(Cc3ccc(F)cc3)ns2)CC1C` (centres unmarked) [compound 140, 1-(2-methylbenzoyl)-4-[3-(4-fluorobenzyl)-1,2,4-thiadiazol-5-yl]-2-methylpiperazine]: 6.35 and 56%.
The matching figures for `Cc1ccc(C(=O)N2CCN(c3nc(Cc4ccc(F)cc4)ns3)CC2)cc1` [compound 141, 1-(4-methylbenzoyl)-4-[3-(4-fluorobenzyl)-1,2,4-thiadiazol-5-yl]piperazine]: 6.31 and 75%.
Take `CC1CN(c2nc(Cc3ccc(F)cc3)ns2)CCN1C(=O)c1cccc(Br)c1` (centres unmarked) [compound 142, 1-(3-bromobenzoyl)-4-[3-(4-fluorobenzyl)-1,2,4-thiadiazol-5-yl]-2-methylpiperazine]: the pEC50 was 6.30 and the Emax was 72%.

The record behind these values is patent publication US7960556B2, “Thiadiazole derivatives for the treatment of neuro-degenerative diseases” (NV reMYND, priority 2006, dated 2011).
